Data from patent publication US20140309229A1, “METHODS FOR SELECTING AND TREATING CANCER IN PATIENTS WITH IGF-1R/IR INHIBITORS” (priority 2011, published 2014).

Experiments:
[1] = tested on: panel of 60 CRC cell lines; experiment: MTS proliferation assay, whole panel; type: cell-based, human; conditions: read-out: IC50, range of sensitivity across the panel
Protocol: (§1) Cell lines and in vitro cytotoxicity assay. Cells were maintained at 37° C. under standard cell culture conditions. Cells were plated at an optimized density for each cell line per well in 96-well microtiter FALCON® plates, incubated overnight, and then exposed to a serial dilution of drug. […] The results were expressed as an IC50, which is the drug concentration required to inhibit cell proliferation to 50% of that of untreated control cells. The mean IC50 and standard deviation (SD) from multiple tests for each cell line were calculated.
(§2) In vitro Cellular Proliferation Assays.

WIDR = experiment: MTS proliferation assay; type: cell-based, human
Protocol: as §1, §2

SW403 = experiment: MTS proliferation assay; type: cell-based, human
Protocol: as §1, §2

SW48 = experiment: MTS proliferation assay; type: cell-based, human
Protocol: as §1, §2

SW1116 = experiment: MTS proliferation assay; type: cell-based, human
Protocol: as §1, §2

RKO-RM13 = experiment: MTS proliferation assay; type: cell-based, human
Protocol: as §1, §2

NCI-H716 = experiment: MTS proliferation assay; type: cell-based, human
Protocol: as §1, §2

SNU-C2B = experiment: MTS proliferation assay; type: cell-based, human
Protocol: as §1, §2

LS-1034 = experiment: MTS proliferation assay; type: cell-based, human
Protocol: as §1, §2

SNU175 = experiment: MTS proliferation assay; type: cell-based, human
Protocol: as §1, §2

RKO PM = experiment: MTS proliferation assay; type: cell-based, human
Protocol: as §1, §2

NCI-H747 = experiment: MTS proliferation assay; type: cell-based, human
Protocol: as §1, §2

HCC-56 = experiment: MTS proliferation assay; type: cell-based, human
Protocol: as §1, §2

GP5D = experiment: MTS proliferation assay; type: cell-based, human
Protocol: as §1, §2

LS-513 = experiment: MTS proliferation assay; type: cell-based, human
Protocol: as §1, §2

SW1463 = experiment: MTS proliferation assay; type: cell-based, human
Protocol: as §1, §2

COLO-205 = experiment: MTS proliferation assay; type: cell-based, human
Protocol: as §1, §2

LS-123 = experiment: MTS proliferation assay; type: cell-based, human
Protocol: as §1, §2

GP2D = experiment: MTS proliferation assay; type: cell-based, human
Protocol: as §1, §2

HCT-15 = experiment: MTS proliferation assay; type: cell-based, human
Protocol: as §1, §2

SNU-61 = experiment: MTS proliferation assay; type: cell-based, human
Protocol: as §1, §2

LS-180 = experiment: MTS proliferation assay; type: cell-based, human
Protocol: as §1, §2

MIP = experiment: MTS proliferation assay; type: cell-based, human
Protocol: as §1, §2

GEO = experiment: MTS proliferation assay; type: cell-based, human
Protocol: as §1, §2

LoVo = experiment: MTS proliferation assay; type: cell-based, human
Protocol: as §1, §2

SK-CO-1 = experiment: MTS proliferation assay; type: cell-based, human; conditions: for IC50: Homo sapiens
Protocol: as §1, §2

HCC2998 = experiment: MTS proliferation assay; type: cell-based, human
Protocol: as §1, §2

LS-411N = experiment: MTS proliferation assay; type: cell-based, human
Protocol: as §1, §2

[2] = patients at minimum efficacious dose, phase I solid tumor trials; cited from earlier work

In the case of `C[C@@]1(C(=O)Nc2ccc(F)nc2)CCCN1c1nc(Nc2cc(C3CC3)n[nH]2)c2cccn2n1` [BMS-754807, (2S)-1-(4-((5-cyclopropyl-1H-pyrazol-3-yl)amino)pyrrolo[2,1-f][1,2,4]triazin-2-yl)-N-(6-fluoro-3-pyridinyl)-2-methyl-2-pyrrolidinecarboxamide], the IC50 [1] is reported as 0.003 to 5.5 µM, the IC50 (WIDR; Homo sapiens, WiDr, 72 h) is reported as 0.194 µM and the “Sensitivity Classes” value (WIDR; WIDR) is reported as “R (“R” refers Resistant)”. The “Sensitivity to BMS-754807” value (WIDR; WIDR, preliminary panel of 45 CRC cell lines) was “Intermediate (remaining 30 cell lines classified as Intermediate or resistant)”, the IC50 (SW403; Homo sapiens, SW-403, 72 h) was 0.034 µM and the “Sensitivity Classes” value (SW403; SW403) was “S (“S” refers Sensitive)”. The “Sensitivity to BMS-754807” value (SW403; SW403, preliminary panel of 45 CRC cell lines) was “Sensitive (a sensitive cell line was classified as one with an IC50 of ≦50 nmol/L)”, the IC50 (SW48; Homo sapiens, SW48, 72 h) was 0.013 µM and the “Sensitivity Classes” value (SW48; SW48) was “S (“S” refers Sensitive)”. The “Sensitivity to BMS-754807” value (SW48; SW48, preliminary panel of 45 CRC cell lines) was “Sensitive (a sensitive cell line was classified as one with an IC50 of ≦50 nmol/L)”, the IC50 (SW1116; Homo sapiens, SW 1116, 72 h) was 0.024 µM and the “Sensitivity Classes” value (SW1116; SW1116) was “S (“S” refers Sensitive)”. The “Sensitivity to BMS-754807” value (SW1116; SW1116, preliminary panel of 45 CRC cell lines) was “Sensitive (a sensitive cell line was classified as one with an IC50 of ≦50 nmol/L)”, the IC50 (RKO-RM13; Homo sapiens, 72 h) was 0.727 µM and the “Sensitivity Classes” value (RKO-RM13; RKO-RM13) was “R (“R” refers Resistant)”. For the same compound, the “Sensitivity to BMS-754807” value (RKO-RM13; RKO-RM13, preliminary panel of 45 CRC cell lines) was “Resistant (resistant cell lines had IC50 values of >50 nmol/L)”, the IC50 (NCI-H716; Homo sapiens, NCI-H716, 72 h) was 0.217 µM and the “Sensitivity Classes” value (NCI-H716; NCI-H716) was “R (“R” refers Resistant)”. The “Sensitivity to BMS-754807” value (NCI-H716; NCI-H716, preliminary panel of 45 CRC cell lines) was “Intermediate (remaining 30 cell lines classified as Intermediate or resistant)”, the IC50 (SNU-C2B; Homo sapiens, SNU-C2B, 72 h) was 1.48 µM and the “Sensitivity Classes” value (SNU-C2B; SNU-C2B) was “R (“R” refers Resistant)”. The “Sensitivity to BMS-754807” value (SNU-C2B; SNUC2B, preliminary panel of 45 CRC cell lines) was “Resistant (resistant cell lines had IC50 values of >50 nmol/L)”, the IC50 (LS-1034; Homo sapiens, LS-1034, 72 h) was 0.044 µM and the “Sensitivity to BMS-754807” value (LS-1034; LS1034, preliminary panel of 45 CRC cell lines) was “Sensitive (a sensitive cell line was classified as one with an IC50 of ≦50 nmol/L)”. The “Sensitivity Classes” value (LS-1034; LS-1034) was “S (“S” refers Sensitive)”, the IC50 (SNU175; Homo sapiens, 72 h) was 0.003 µM and the “Sensitivity Classes” value (SNU175; SNU175) was “S (“S” refers Sensitive)”. The IC50 (RKO PM; Homo sapiens, 72 h) was 0.857 µM, the “Sensitivity Classes” value (RKO PM; RKO PM) was “R (“R” refers Resistant)” and the “Sensitivity to BMS-754807” value (RKO PM; RKO PM, preliminary panel of 45 CRC cell lines) was “Resistant (resistant cell lines had IC50 values of >50 nmol/L)”. For the same compound, the IC50 (NCI-H747; Homo sapiens, NCI-H747, 72 h) was 1.16 µM, the “Sensitivity Classes” value (NCI-H747; NCI-H747) was “R (“R” refers Resistant)” and the “Sensitivity to BMS-754807” value (NCI-H747; NCI-H747, preliminary panel of 45 CRC cell lines) was “Resistant (resistant cell lines had IC50 values of >50 nmol/L)”. The “Sensitivity Classes” value (HCC-56; HCC-56) was “S (“S” refers Sensitive)”, the IC50 (HCC-56; Homo sapiens, 72 h) was 0.005 µM and the “Sensitivity Classes” value (GP5D; GP5D) was “R (“R” refers Resistant)”. The IC50 (GP5D; Homo sapiens, GP5d, 72 h) was 0.252 µM, the IC50 (LS-513; Homo sapiens, LS-513, 72 h) was 0.015 µM and the “Sensitivity to BMS-754807” value (LS-513; LS513, preliminary panel of 45 CRC cell lines) was “Sensitive (a sensitive cell line was classified as one with an IC50 of ≦50 nmol/L)”. The “Sensitivity Classes” value (LS-513; LS-513) was “S (“S” refers Sensitive)”, the IC50 (SW1463; Homo sapiens, SW1463, 72 h) was 0.016 µM and the “Sensitivity Classes” value (SW1463; SW1463) was “S (“S” refers Sensitive)”. For the same compound, the “Sensitivity to BMS-754807” value (SW1463; SW1463, preliminary panel of 45 CRC cell lines) was “Sensitive (a sensitive cell line was classified as one with an IC50 of ≦50 nmol/L)”, the “Sensitivity to BMS-754807” value (COLO-205; COLO205, preliminary panel of 45 CRC cell lines) was “Intermediate (remaining 30 cell lines classified as Intermediate or resistant)” and the “Sensitivity Classes” value (COLO-205; COLO-205) was “R (“R” refers Resistant)”. For the same compound, the IC50 (COLO-205; Homo sapiens, COLO 205, 72 h) was 0.242 µM, the IC50 (LS-123; Homo sapiens, LS-123, 72 h) was 4.47 µM and the “Sensitivity to BMS-754807” value (LS-123; LS123, preliminary panel of 45 CRC cell lines) was “Resistant (resistant cell lines had IC50 values of >50 nmol/L)”. The “Sensitivity Classes” value (LS-123; LS-123) was “R (“R” refers Resistant)”, the “Sensitivity Classes” value (GP2D; GP2D) was “R (“R” refers Resistant)” and the IC50 (GP2D; Homo sapiens, GP2d, 72 h) was 0.261 µM. For the same compound, the “Sensitivity to BMS-754807” value (HCT-15; HCT15, preliminary panel of 45 CRC cell lines) was “Resistant (resistant cell lines had IC50 values of >50 nmol/L)”, the “Sensitivity Classes” value (HCT-15; HCT-15) was “R (“R” refers Resistant)” and the IC50 (HCT-15; Homo sapiens, HCT-15, 72 h) was 0.757 µM. For the same compound, the IC50 (SNU-61; Homo sapiens, 72 h) was 0.035 µM, the “Sensitivity Classes” value (SNU-61; SNU-61) was “S (“S” refers Sensitive)” and the IC50 (LS-180; Homo sapiens, LS180, 72 h) was 0.629 µM. For the same compound, the “Sensitivity to BMS-754807” value (LS-180; LS180, preliminary panel of 45 CRC cell lines) was “Resistant (resistant cell lines had IC50 values of >50 nmol/L)”, the “Sensitivity Classes” value (LS-180; LS-180) was “R (“R” refers Resistant)” and the “Sensitivity Classes” value (MIP) was “R (“R” refers Resistant)”. The IC50 (MIP; Homo sapiens, 72 hrs) was 4.36 µM, the “Sensitivity Classes” value (GEO; GEO) was “R (“R” refers Resistant)” and the “Sensitivity to BMS-754807” value (GEO; GEO, preliminary panel of 45 CRC cell lines) was “Intermediate (remaining 30 cell lines classified as Intermediate or resistant)”. For the same compound, the IC50 (GEO; Homo sapiens, 72 h) was 0.407 µM, the IC50 (LoVo; Homo sapiens, LoVo, 72 h) was 3.87 µM and the “Sensitivity to BMS-754807” value (LoVo; LOVO, preliminary panel of 45 CRC cell lines) was “Resistant (resistant cell lines had IC50 values of >50 nmol/L)”. The “Sensitivity Classes” value (LoVo; LoVo) was “R (“R” refers Resistant)”, the IC50 (SK-CO-1; SK-CO-1) was 0.003 µM and the IC50 (SK-CO-1; SK-CO-1, 72 h) was 0.003 µM. For the same compound, the “Sensitivity Classes” value (SK-CO-1; SK-CO-1) was “S (“S” refers Sensitive)”, the “Sensitivity to BMS-754807” value (SK-CO-1; SK-CO-1, preliminary panel of 45 CRC cell lines) was “Sensitive (a sensitive cell line was classified as one with an IC50 of ≦50 nmol/L)” and the “Sensitivity Classes” value (HCC2998; HCC2998) was “R (“R” refers Resistant)”. The IC50 (HCC2998; Homo sapiens, HCC 2998, 72 h) was 0.38 µM, the IC50 (LS-411N; Homo sapiens, LS-411N, 72 h) was 0.099 µM and the “Sensitivity to BMS-754807” value (LS-411N; LS411N, preliminary panel of 45 CRC cell lines) was “Intermediate (remaining 30 cell lines classified as Intermediate or resistant)”. The “Sensitivity Classes” value (LS-411N; LS-411N) was “R (“R” refers Resistant)” and the “average plasma concentration at steady state” value [2] was over 50 nmol/L.
